Targets include Eis_D26A (Mycobacterium tuberculosis, UniProt P9WFK7, D26A); Eis_W36A (Mycobacterium tuberculosis, UniProt P9WFK7, W36A); Eis_W36R (Mycobacterium tuberculosis, UniProt P9WFK7, W36R); Eis_R37A (Mycobacterium tuberculosis, UniProt P9WFK7, R37A); Eis_R37G (Mycobacterium tuberculosis, UniProt P9WFK7, R37G); Eis_L63A (Mycobacterium tuberculosis, UniProt P9WFK7, L63A); Eis_M65A (Mycobacterium tuberculosis, UniProt P9WFK7, M65A); Eis_S83G (Mycobacterium tuberculosis, UniProt P9WFK7, S83G); Eis_F84A (Mycobacterium tuberculosis, UniProt P9WFK7, F84A).

Holding throughout (assay type): biochemical

What is called Km is the substrate concentration at which the rate is half of its maximum. The term kcat denotes the number of substrate molecules converted per active site and unit of time at saturation.

Turning to `NC[C@H]1O[C@H](O[C@H]2[C@H](O)[C@@H](O[C@H]3O[C@H](CO)[C@@H](O)[C@H](N)[C@H]3O)[C@H](N)C[C@@H]2N)[C@H](O)[C@@H](O)[C@@H]1O` [KAN, kanamycin], the Km amounted to 1280 ± 360 µM on Eis_D26A; 556 ± 148 µM on Eis_W36A; 352 ± 77 µM on Eis_W36R; 971 ± 166 µM on Eis_R37A; 696 ± 44 µM on Eis_R37G; 484 ± 93 µM at Eis_L63A. The Km at Eis_M65A amounted to 247 ± 19 µM; on Eis_S83G, 432 ± 48 µM; at Eis_F84A it was 569 ± 94 µM. Moreover, the “increase in the Km value of KAN from that for the wild-type enzyme” value at Eis_D26A worked out at 2.3 fold. For the same compound, the kcat came to 0.235 ± 0.0417 s⁻¹ on Eis_D26A; 0.138 ± 0.0167 s⁻¹ on Eis_W36A; 0.0733 ± 0.0067 s⁻¹ at Eis_W36R; 0.158 ± 0.005 s⁻¹ on Eis_R37A; 0.215 ± 0.0017 s⁻¹ at Eis_R37G; 0.323 ± 0.025 s⁻¹ on Eis_L63A. In addition, the kcat on Eis_M65A came to 0.495 ± 0.015 s⁻¹; at Eis_S83G, 0.365 ± 0.013 s⁻¹; on Eis_F84A it was 0.142 ± 0.012 s⁻¹. The “decrease in the maximum turnover rate” value at Eis_W36R stood at 3.3 fold. For the same compound, the “increase of the binding affinity to KAN” value on Eis_W36R amounted to 1.6 fold. For the same compound, the “increase in the catalytic efficiency from that of the wild-type enzyme” value at Eis_M65A came out at 4.6 fold. The “maximum turnover rate, fold higher” value on Eis_M65A worked out at 2 fold. Further, the “increase in the catalytic efficiency of the enzyme” value on Eis_S83G is on record as 2 fold.
